Our source for the acute lethal concentration values is US7763578B2, “Preparation of polymeric foams using hydrofluoroether nucleating agents” (3M Innovative Properties Company, priority 2004, dated 2010).

This data set in a line: Acute toxicity (acute lethal concentration in air). Type of data set: in vivo. The settings on record: 10,000 ppm is its saturated concentration in air at room temperature. The source says:
In addition to providing useful performance as nucleating agents, the segregated ethers useful herein can offer additional important benefits in safety of use and in environmental compatibility (e.g., zero ozone depletion potential and low atmospheric lifetime). For example, 3M NOVEC Brand HFE-7500 has low acute toxicity (its acute lethal concentration is greater than 10,000 ppm which is its saturated concentration in air at room temperature). […] Further, polymeric foams produced in accordance with the invention have excellent thermal insulation properties.

In the case of `CCOC(F)(C(F)(F)C(F)(F)C(F)(F)F)C(F)(C(F)(F)F)C(F)(F)F` (stereo not shown) [3M NOVEC Brand HFE-7500, C3F7CF(OC2H5)CF(CF3)2], the acute lethal concentration result is “greater than 10,000 ppm”.
